In brackets after ≈: the same amount, converted by molar mass.
Assays:
KB = assay: Cytotoxicity against human KB cells assessed as inhibition of cell growth; format: functional, cell-based
5'-nucleotidase = 5'-nucleotidase (Homo sapiens, UniProt P21589); assay: Inhibition of human N-terminal Ecto-5'-nucleotidase
5'-nucleotidase, sequence (P21589 whole entry): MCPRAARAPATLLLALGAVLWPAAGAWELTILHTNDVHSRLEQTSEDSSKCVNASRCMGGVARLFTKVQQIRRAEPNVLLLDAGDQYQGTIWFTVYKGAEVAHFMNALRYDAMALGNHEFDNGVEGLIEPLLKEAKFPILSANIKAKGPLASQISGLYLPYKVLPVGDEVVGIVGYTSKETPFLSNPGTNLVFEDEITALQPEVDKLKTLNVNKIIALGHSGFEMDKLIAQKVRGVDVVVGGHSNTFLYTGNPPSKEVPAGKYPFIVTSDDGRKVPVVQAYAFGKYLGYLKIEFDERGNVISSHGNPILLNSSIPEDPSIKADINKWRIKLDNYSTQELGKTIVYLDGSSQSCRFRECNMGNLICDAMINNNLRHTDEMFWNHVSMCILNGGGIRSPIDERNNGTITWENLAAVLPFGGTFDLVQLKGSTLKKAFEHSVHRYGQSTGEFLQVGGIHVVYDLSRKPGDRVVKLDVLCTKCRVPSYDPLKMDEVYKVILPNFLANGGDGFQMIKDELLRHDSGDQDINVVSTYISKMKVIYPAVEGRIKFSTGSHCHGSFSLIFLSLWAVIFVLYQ

IC50 (5'-nucleotidase)	Structure (SMILES)	IC50 (KB)
–	COc1ccc(C[C@H]2NC(=O)/C=C/C[C@@H]([C@H](C)[C@H]3O[C@@H]3c3ccccc3)OC(=O)[C@H](CC(C)C)OC(=O)CCNC2=O)cc1 [ARENASTATIN A]	0.005 ng/mL (≈ 0.00824 nM)
1600 nM	Nc1ncc(/C=C/CNC(=O)c2ccc[nH]2)[nH]1 [CLATHRODIN]	–
1600 nM	Nc1ncc(/C=C/CNC(=O)c2cc(Br)c(Br)[nH]2)[nH]1 [OROIDIN]	–
